Laboratory results taken from patent US4737497A, “Bis-dioxopiperazine derivatives, antitumor agents comprising them and compositions containing them” (Zenyaki Kogyo Kabushiki Kaisha, priority 1983, dated 1988).
Values after ≈ are worked out from the molar mass of the structure shown.

Legend:
Solubility in water = format: physicochemical; conditions: 25° C.
Hepatoma 22 = experiment: Growth inhibition test on Hepatoma 22; format: in vivo, mice (K-M); conditions: 25 mg/kg daily, orally, once a day for 9 days; tumor weight on 12th day
Method: The treated group to which the compound of the present invention was administered consisted of ten mice, while the control group consisted of twenty mice. Four weeks old female mice (K-M, 20±2 g of body weight) were employed as host animals.
Tumor cells (a 2 mm^3 fragment) of Hepatoma 22 were transplanted subcutaneously in the flank of each mouse. The treatment began one day after the transplantation and the prescribed dose of the test compound was administered orally to the mice once a day for 9 days.
(§1) On the 12th day after the transplantation, the tumors of all the mice were excised and weighed. Antitumor activity of the test compound was evaluated by the rate of growth inhibition (G.I.%) which was calculated in the same manner as used in the animal test on Lewis lung carcinoma.

B-16 melanoma = experiment: Growth inhibition test on B-16 melanoma; format: in vivo, mice (BDF1 (C57BL/6×DBA/2)); conditions: Mus musculus, B16, po, 480 h, orally, once a day for 8 days, tumor weight on 20th day, read-out: G.I. (growth inhibition); for inhibition in vivo at 60 mg/kg: 60 mg/kg daily; for inhibition in vivo at 40 mg/kg: 40 mg/kg daily; for inhibition in vivo at 20 mg/kg: 20 mg/kg daily
Method: The treated group to which the compound of the present invention was administered consisted of seven mice, while the control group consisted of ten mice. Six weeks old male mice [BDF1 (C57BL/6×DBA/2), 25+2 g of body weight] were employed as host animals.
Tumor cells (5×10^5) of B-16 melanoma were transplanted subcutaneously in inguinal region of each mouse. The treatment began one day after the transplantation and the prescribed dose of each test compound was administered orally to the mice once a day for 8 days.
On the 20th day after the transplantation, the tumors of all the mice were excised and weighed. Antitumor activity of the test compound was evaluated by the rate of growth inhibition (G.I.%) which was calculated in the same manner as used in the animal test on Lewis lung carcinoma.

Lewis lung carcinoma = experiment: Growth inhibition test on Lewis lung carcinoma; format: in vivo, mice (BDF1 (C57BL/6×DBA/2)); conditions: Mus musculus, po, 480 h, orally, once a day for 8 days, tumor weight on 20th day, read-out: G.I. (growth inhibition); for inhibition in vivo at 60 mg/kg: 60 mg/kg daily; for inhibition in vivo at 40 mg/kg: 40 mg/kg daily
Method: The treated group to which the compound of the present invention was administered consisted of seven mice, while the control group consisted of ten mice. Six weeks old male mice [BDF1 (C57BL/6×DBA/2), 25±2 g of body weight] were employed as host animals.
Tumor cells (5×10^5) of Lewis lung carcinoma were transplanted subcutaneously in inguinal region of each mouse. The treatment began one day after the transplantation and the prescribed dose of each test compound was administered orally to the mice once a day for 8 days.
On the 20th day after the transplantation, the tumors of all the mice were excised and weighed. Antitumor activity of the test compound was evaluated by the rate of growth inhibition (G.I.%) which was calculated with the following formula. [formula] T: mean tumor weight of treated mice C: mean tumor weight of control mice

Sarcoma 37 = experiment: Growth inhibition test on Sarcoma 37; format: in vivo, mice (K-M); conditions: once a day for 10 days; for G.I. (growth inhibition): tumor weight on 12th day; for ED50: Mus musculus, 288 h
Method: The treated group to which the compound of the present invention was administered consisted of eight mice, while the control group consisted of sixteen mice. Four weeks old female mice (K-M, 20±2 g of body weight) were employed as host animals.
Tumor cells (0.2 ml of 1:5 suspension) of Sarcoma 37 were transplanted subcutaneously in the flank of each mouse. The treatment began one day after the transplantation and the prescribed dose (1.56-50 mg/kg) of dl-1,2-bis(4-morpholinomethyl-3,5-dioxopiperazin-1-yl)-propane was administered intraperitoneally (i.p.) or orally (p.o.) to the mice once a day for 10 days.
as §1

[1] = Animal test on subacute toxicity; conditions: mouse, in vivo, ip; intraperitoneal, once a day for 8 days, female K-M mice, observed 14 days, Bliss-Finney method
Method: The test group to which the compound of the present invention was administered consisted of ten mice, while the control group consisted of ten mice. Four weeks old female mice (K-M, 20±2 g of body weight) were employed as test animals.
LD50 value of the subacute toxicity was determined by the Bliss-Finney statistical method.

[2] = tested on: Colon adenocarcinoma No. 38; experiment: Growth inhibition test on Colon adenocarcinoma No. 38; format: in vivo, mice (BDF1); conditions: orally, once a day for 8 days, tumor weight on 30th day
Method: The treated group to which the compound of the present invention was administered consisted of seven mice, while the control group consisted of ten mice. Six weeks old male mice [BDF1 (G57BL/6×DBA/2), 25±2 g of body weight] were employed as hosts animals.
Tumor cells (40 mg of fragment) of Colon adenocarcinoma No. 38 were transplanted subcutaneously in inguinal region of each mouse. The treatment began one day after the transplantation and the prescribed dose of each test compound was administered orally to the mice once a day for 8 days.
On the 30th day after the transplantaion, the tumors of all the mice were excised and weighed. Antitumor activity of the test compound was evaluated by the rate of growth inhibition (G.I.%) which was calculated in the same manner as used in the animal test on Lewis lung carcinoma.

[3] = Animal test on acute toxicity; conditions: mouse, in vivo, ip; intraperitoneal, male ddY mice, observed 14 days, Litchfield-Wilcoxon method
Method: The test group to which the compound of the present invention was administered consisted of ten mice. Five weeks old male mice (ddY, 23±2 g of body weight) were employed as test animals.

**Q.** What does the source list for CC(CN1CC(=O)N(CN2CCOCC2)C(=O)C1)N1CC(=O)N(CN2CCOCC2)C(=O)C1 (racemic) [dl-1,2-Bis(4-morpholinomethyl-3,5-dioxopiperazin-1-yl)-propane]?
**A.** solubility (Solubility in water): 20 mg/mL (≈ 42.9 mM); G.I. (growth inhibition) (Hepatoma 22): 42.7%; inhibition in vivo at 60 mg/kg (B-16 melanoma): 93.8%; inhibition in vivo at 60 mg/kg (Lewis lung carcinoma): 89.3%; G.I. (growth inhibition) (Sarcoma 37; 1.56 mg/kg daily, i.p.): 33.2%; G.I. (growth inhibition) (Sarcoma 37; 3.12 mg/kg daily, i.p.): 56.1%; G.I. (growth inhibition) (Sarcoma 37; 3.12 mg/kg daily, p.o.): 39.3%; G.I. (growth inhibition) (Sarcoma 37; 6.25 mg/kg daily, i.p.): 72.7%; G.I. (growth inhibition) (Sarcoma 37; 6.25 mg/kg daily, p.o.): 68.8%; G.I. (growth inhibition) (Sarcoma 37; 12.5 mg/kg daily, i.p.): 82.4%; G.I. (growth inhibition) (Sarcoma 37; 12.5 mg/kg daily, p.o.): 94.2%; G.I. (growth inhibition) (Sarcoma 37; 25 mg/kg daily, i.p.): 94.6%; G.I. (growth inhibition) (Sarcoma 37; 25 mg/kg daily, p.o.): 100%; G.I. (growth inhibition) (Sarcoma 37; 50 mg/kg daily, i.p.): 100%; ED50 (Sarcoma 37; ip): 3.1 mg/kg; ED50 (Sarcoma 37; po): 4.3 mg/kg; LD50 at 336 h [1]: 178 mg/kg; G.I. (growth inhibition) ([2]; 60 mg/kg daily): 91.6%; LD50 at 336 h [3]: 255 mg/kg

**Q.** For CC(CN1CC(=O)N(CN2CCSCC2)C(=O)C1)N1CC(=O)N(CN2CCSCC2)C(=O)C1 (racemic) [dl-1,2-Bis(4-thiomorpholinomethyl-3,5-dioxopiperazin-1-yl)-propane], which inhibition in vivo at 40 mg/kg (B-16 melanoma) is on record?
**A.** 77.5%

**Q.** And the LD50 at 336 h [3]?
**A.** 330 mg/kg

**Q.** Which inhibition in vivo at 60 mg/kg (B-16 melanoma) does the source give for CC1CC(C)CN(CN2C(=O)CN(CC(C)N3CC(=O)N(CN4CC(C)CC(C)C4)C(=O)C3)CC2=O)C1 (racemic) [dl-1,2-Bis[4-(3,5-dimethylpiperidinomethyl)-3,5-dioxopiperazin-1-yl]-propan] here?
**A.** 91.2%

**Q.** And the inhibition in vivo at 60 mg/kg (Lewis lung carcinoma)?
**A.** 77.4%

**Q.** For CC(CN1CC(=O)N(CN2CCN(C)CC2)C(=O)C1)N1CC(=O)N(CN2CCN(C)CC2)C(=O)C1 (racemic) [dl-1,2-Bis[4-(N-methylpiperazinomethyl)-3,5-dioxopiperazin-1-yl]-propane], which inhibition in vivo at 60 mg/kg (Lewis lung carcinoma) is on record?
**A.** 53.5%

**Q.** What about the LD50 at 336 h [3] of the same molecule?
**A.** 300 to 400 mg/kg

**Q.** For CC(CN1CC(=O)N(CN2CCN(c3ccccc3)CC2)C(=O)C1)N1CC(=O)N(CN2CCN(c3ccccc3)CC2)C(=O)C1 (racemic) [dl-1,2-Bis[4-(N-phenylpiperazinomethyl)-3,5-dioxopiperazin-1-yl]-propane], which inhibition in vivo at 20 mg/kg (B-16 melanoma) is on record?
**A.** 71%

**Q.** What about the inhibition in vivo at 40 mg/kg (Lewis lung carcinoma) of the same molecule?
**A.** 89%

**Q.** What about the LD50 at 336 h [3] of the same molecule?
**A.** 100 mg/kg

**Q.** Which results are given for CC(CN1CC(=O)N(CN2CCOCC2)C(=O)C1)N1CC(=O)NC(=O)C1 (racemic) [dl-1-(4-Morpholinomethyl-3,5-dioxopiperazin-1-yl)-2-(3,5-dioxopiperazin-1-yl)-propane]?
**A.** inhibition in vivo at 40 mg/kg (B-16 melanoma): 76.1%; inhibition in vivo at 40 mg/kg (Lewis lung carcinoma): 83.9%; G.I. (growth inhibition) ([2]; 40 mg/kg daily): 74.1%

**Q.** With CC(CN1CC(=O)N(CN2CCN(c3ccccc3)CC2)C(=O)C1)N1CC(=O)NC(=O)C1 (racemic) [dl-1-[4-(N-Phenylpiperazinomethyl)-3,5-dioxopiperazin-1-yl]-2-(3,5-dioxopiperazin-1-yl)-propane] as the molecule, how does the inhibition in vivo at 20 mg/kg (B-16 melanoma) read?
**A.** 60.8%

**Q.** And the inhibition in vivo at 40 mg/kg (Lewis lung carcinoma)?
**A.** 76.2%

**Q.** What about the “G.I. (growth inhibition)” value ([2]; 40 mg/kg daily) of the same molecule?
**A.** 93.5%

**Q.** And the LD50 at 336 h [3]?
**A.** > 350 mg/kg

**Q.** Which inhibition in vivo at 60 mg/kg (B-16 melanoma) does the source give for O=C1CN(CCN2CC(=O)N(CN3CCSCC3)C(=O)C2)CC(=O)N1CN1CCSCC1 [1,2-Bis(4-thiomorpholinomethyl-3,5-dioxopiperazin-1-yl)-ethane] here?
**A.** 73.5%

**Q.** What does the source list for CC1CC(C)CN(CN2C(=O)CN(CCN3CC(=O)N(CN4CC(C)CC(C)C4)C(=O)C3)CC2=O)C1 (centres unmarked) [1,2-Bis[4-(3,5-dimethylpiperidinomethyl)-3,5-dioxopiperazin-1-yl]-ethane]?
**A.** inhibition in vivo at 60 mg/kg (B-16 melanoma): 68.9%; inhibition in vivo at 60 mg/kg (Lewis lung carcinoma): 67.2%; G.I. (growth inhibition) ([2]; 60 mg/kg daily): 83.1%; LD50 at 336 h [3]: 400 to 500 mg/kg

**Q.** Which inhibition in vivo at 60 mg/kg (B-16 melanoma) does the source give for O=C1CN(CCN2CC(=O)N(CN3CCN(c4ccccc4)CC3)C(=O)C2)CC(=O)N1CN1CCN(c2ccccc2)CC1 [1,2-Bis[4-(N-phenylpiperazinomethyl)-3,5-dioxopiperazin-1-yl]-ethane] here?
**A.** 91.9%

**Q.** What about the inhibition in vivo at 60 mg/kg (Lewis lung carcinoma) of the same molecule?
**A.** 78.9%

**Q.** What about the “G.I. (growth inhibition)” value ([2]; 60 mg/kg daily) of the same molecule?
**A.** 97.9%

**Q.** What about the LD50 at 336 h [3] of the same molecule?
**A.** 200 to 300 mg/kg

**Q.** What does the source list for O=C1CN(CCN2CC(=O)N(CN3CCOCC3)C(=O)C2)CC(=O)N1CN1CCOCC1 [1,2-bis(4-morpholinomethyl-3,5-dioxopiperazin-1-yl)-ethane, reference compound]?
**A.** G.I. (growth inhibition) (Hepatoma 22): 12.9%; inhibition in vivo at 60 mg/kg (B-16 melanoma): 48.9%; inhibition in vivo at 60 mg/kg (Lewis lung carcinoma): 22.6%; LD50 at 336 h [1]: 59.3 mg/kg; G.I. (growth inhibition) ([2]; 60 mg/kg daily): 72.8%; LD50 at 336 h [3]: 280 mg/kg
